The values below come from patent US20110190267A1, “PRODRUGS OF OPIOIDS AND USES THEREOF” (priority 2010, published 2011).

“And” between values parts separate entries of the source, which are not always exact repeats. Identical values can stand only once. Counter-ions that a name gives are not always drawn. Like-named read-outs stand apart in the source and are kept apart here. Marks after values point to notes of the source that are not given here.

A short description of data set [1]: in vivo. Particulars: male, rat, plasma, po, 10 mg naloxone free base equivalents/kg, naloxone in plasma after oral naloxone, 10 mg free base equivalents/kg, male rats; for half-life: t½.
Description: Blood samples were taken at various times after administration and submitted to analysis for the parent drug and pro-drug using a validated LC-MS-MS assay. Pharmacokinetic parameters derived from the plasma analytical data were determined using Win Nonlin.
The format of data set [2] is physicochemical. The method, then: Additionally the potential activation at blood pH of 7.4 was investigated over a similar period. The concentrations of the prodrug & drug were assayed by HPLC.
The format of data set [3] is in vitro ADME.
The nature of data set [4]: Pharmacokinetics of R,R tapentadol or R,R tapentadol PABA carbamate, monkeys (Example 40). Type of data set: in vivo, cynomolgus monkeys. To be noted: R,R tapentadol in plasma after oral R,R tapentadol, 3 mg free base equivalents/kg.
Description: (§1) Blood samples were taken at various times after administration, and submitted to analysis for the parent drug and prodrug using a validated LC-MS-MS assay. Pharmacokinetic parameters derived from the plasma analytical data were determined using Win Nonlin.
Data set [5] in a line: Pharmacokinetics of R,R tapentadol or R,R tapentadol PABA carbamate, dogs (Example 41). It counts as in vivo, Beagle dogs. Particulars: for AUC / Cmax / T>50%Cmax / Tmax / t½: RR-tapentadol in plasma after oral RR-tapentadol, 1 mg free base equivalents/kg, female beagle dogs.
Description: as §1
Data set [6] in a line: Pharmacokinetics of butorphanol or butorphanol PABA carbamate, monkeys (Example 43). Type of data set: in vivo, cynomolgus monkeys.
Description: as §1
A short description of data set [7]: Pharmacokinetics of butorphanol or butorphanol PABA carbamate, dogs (Example 44). It counts as in vivo, beagle dogs. Particulars: butorphanol in plasma after oral butorphanol, 0.5 mg butorphanol free base/kg, dog; for half-life: read-out: t½ (converted). The method, then:
Test substances, butorphanol or butorphanol_PABA carbamate were orally administered to two male beagle dogs at 0.5 mg butorphanol free base equivalents/kg in a parallel group study design.

For data set [8] the following is noted: Balikova et al. (2001); cited from earlier work.
Data set [9] is described as follows: Pharmacokinetics of racemic tapentadol or tapentadol PABA carbamate, monkeys (Example 39).
Data set [10] in a line: in vivo. Particulars: dog, read-out: Dog Oral Bioavailability (%).
Description: (§2) Blood samples were taken at various times after administration and submitted to analysis for the parent drug and prodrug using a validated LC-MS-MS assay. Pharmacokinetic parameters derived from the plasma analytical data were determined using Win Nonlin.
Data set [11] in a line: in vivo. Particulars: monkey, read-out: Monkey Oral Bioavailability (%).
Description: as §2
The mark [12] stands for this setting: naloxone in plasma after oral naloxone, 10 mg free base equivalents/kg, male rats, single animal.
Setting [13] is: simulated intestinal fluid pH 6.8, 37 C.

For the compound `C=CCN1CC[C@]23c4c5ccc(O)c4O[C@H]2C(=O)CC[C@@]3(O)[C@H]1C5` [naloxone], the “T>50%Cmax” value (naloxone in plasma after oral naloxone, 10 mg free base equivalents/kg, male rats, Mean) was found to be 2.1 h. Also, under setting [12], the Cmax (usually the peak of the concentration-time curve) was 6.3 ng/mL and 7.6 ng/mL and 8.1 ng/mL and 4.9 ng/mL; the “T>50%Cmax” value was 1.2 h and 1.5 h and 1.8 h and 1.3 h and 4.5 h; the Tmax (as a rule, the time at which the peak concentration occurs) is given as 0.50 h; the t½ (as a rule, the time in which the quantity being followed falls by half) turned out to be 3.8 h. The “variability around bioavailability of naloxone” value (rats, oral 10 mg/kg) is “over 10%”. In addition, in “in vivo [1]” (Mean), the AUC (commonly the area under the concentration-time curve, a measure of exposure) was found to be 22 ng·h/mL; the Cmax came to 6.8 ng/mL; the Tmax amounted to 0.35 h; the half-life is 3.9 h. Further, in the data set “in vivo [1]” (single animal), the AUC was 22 ng·h/mL, the Cmax worked out at 7.1 ng/mL, the Tmax is 0.25 h and the half-life was 3.9 h.
For the compound `CCC1(c2cccc(OC(=O)NC(CCSC)C(=O)O)c2)CCCCN(C)C1` (stereo not shown) [Meptazinol methionine carbamate], in data set [2] (buffer, 2 h, pH 10), the “Chemical Stability, % prodrug remaining at 2 h, pH 10.0” value worked out at 60% pH 10.0. In addition, in data set [3] (simulated gi fluid, pH 6.8), the “Biological/chemical stability - SIF - pH 6.8, 37 C. % prodrug remaining at 2 h” value is 100%.
In the case of `CCC1(c2cccc(OC(=O)NC(C(=O)O)C(C)C)c2)CCCCN(C)C1` [Meptazinol (R)-valine carbamate], the “Chemical Stability - pH 7.4, 37° C. % prodrug remaining at 2 h” value in data set [2] (pH 7.4, 37° C, 2 h) is on record as 96%. In addition, the “Biological/chemical stability - SIF - pH 6.8, 37 C. % prodrug remaining at 2 h” value in [3] (setting [13]) is 74%.
For `CC[C@@H](c1cccc(O)c1)[C@@H](C)CN(C)C` [R,R tapentadol], in data set [4] (Mean), the AUC worked out at 7.6 ng·h/mL, the Cmax was found to be 2.2 ng/mL, the “T>50%Cmax” value was determined as 2.8 h and the Tmax was determined as 1.1 h. The t½ in data set [4] (Mean) amounted to 1.6 h. For the same compound, in [4] (single animal), the AUC is 10 ng·h/mL and 8.6 ng·h/mL and 7.7 ng·h/mL and 4.0 ng·h/mL; the Cmax is 2.9 ng/mL and 2.6 ng/mL and 2.1 ng/mL and 1.1 ng/mL; the “T>50%Cmax” value is 2.8 h (2×) and 2.7 h and 2.9 h; the Tmax is 0.5 h and 1.0 h (2×) and 2.0 h. For the same compound, in data set [4] (single animal), the t½ was 1.5 h (2×) and 1.7 h and 1.6 h. Besides, in data set [5] (Mean), the AUC worked out at 4.16 ng·h/mL, the Cmax is recorded as 3.21 ng/mL, the “T>50%Cmax” value amounted to 0.7 h and the time of peak concentration (Tmax) stood at 0.44 h. In data set [5] (Mean), the t½ amounted to 0.6 h. For the same compound, in data set [5] (single animal), the AUC was 1.74 ng·h/mL and 8.35 ng·h/mL and 2.38 ng·h/mL; the Cmax is 1.25 ng/mL and 8.48 ng/mL and 0.39 ng/mL and 2.71 ng/mL; the “T>50%Cmax” value was 1.0 h and 0.6 h (2×); the Tmax is 0.50 h (3×) and 0.25 h. Also, the t½ in data set [5] (single animal) is 0.7 h and 0.6 h and 0.5 h. For the same compound, the “T50% Cmax of R,R tapentadol” value in data set [5] (dogs, oral 1 mg R,R tapentadol free base equivalents/kg) is listed as 0.7 h.
With `CCC1(c2cccc(OC(=O)N[C@H](C(=O)O)C(C)C)c2)CCCCN(C)C1` (stereo partly shown) [Meptazinol-valine carbamate], in [2] (pH 7.4), the “Chemical stability at pH 7.4” value is reported as roughly 100%.
Turning to `CCC1(c2cccc(OC(=O)NC(C(=O)O)C(C)C)c2)CCCCN(C)C1` [Meptazinol (S) valine carbamate], in data set [2] (pH 10.0, 37° C, 2 h), the “Chemical Stability, % prodrug remaining at 2 h, pH 10.0” value was 66% pH 10.0. The “Biological/chemical stability - SIF - pH 6.8, 37 C. % prodrug remaining at 2 h” value in [3] (setting [13]) is listed as 99%.
`Oc1ccc2c(c1)[C@@]13CCCC[C@@]1(O)[C@@H](C2)N(CC1CCC1)CC3` [butorphanol]: the Cmax in data set [6] (butorphanol in plasma after oral butorphanol, 1.0 mg butorphanol free base/kg, monkey, single animal, below the LLOQ of 0.1 ng/mL) was <0.1* ng/mL; in data set [6] (male, cynomolgus monkey, plasma, po, 1 mg butorphanol free base equivalents/kg, butorphanol in plasma after oral butorphanol, 1.0 mg butorphanol free base/kg, Average, plasma concentrations below the LLOQ of 0.1 ng/mL, read-out: Cmax) it was 0.1 ng/mL; in [6] (male, cynomolgus monkey, plasma, po, 1 mg butorphanol free base equivalents/kg, butorphanol in plasma after oral butorphanol, 1.0 mg butorphanol free base/kg, single animal, below the LLOQ of 0.1 ng/mL, read-out: Cmax), less than 0.1 ng/mL; in [7] (single animal) it was 0.56 ng/mL; in data set [7] (male, beagle, plasma, po, 0.5 mg/kg, Average, read-out: Cmax), 0.73 ng/mL; in data set [7] (male, beagle, plasma, po, 0.5 mg/kg, single animal, read-out: Cmax) it was 0.9 ng/mL. Moreover, the AUC in [6] (male, cynomolgus monkey, 1 mg butorphanol free base equivalents/kg, butorphanol in plasma after oral butorphanol, 1.0 mg butorphanol free base/kg, Average, estimate of maximal systemic exposure) is 0.62 ng·h/mL; in data set [7] (single animal) it was 1.80 ng·h/mL; in data set [7] (male, beagle, plasma, po, 0.5 mg/kg, Average, read-out: AUC), 2.05 ng·h/mL; in [7] (male, beagle, plasma, po, 0.5 mg/kg, single animal, read-out: AUC) it was 2.3 ng·h/mL. Moreover, the Tmax was determined as 0.5 h in [6] (male, cynomolgus monkey, 1 mg butorphanol free base equivalents/kg, butorphanol in plasma after oral butorphanol, 1.0 mg butorphanol free base/kg, Average, plasma concentrations below the LLOQ of 0.1 ng/mL); 1.00 h in [7] (single animal); 0.75 h in data set [7] (male, beagle, plasma, po, 0.5 mg/kg, Average, read-out: Tmax); 0.5 h in data set [7] (male, beagle, plasma, po, 0.5 mg/kg, single animal, read-out: Tmax). Also, the half-life in data set [6] (male, cynomolgus monkey, plasma, 1 mg butorphanol free base equivalents/kg, butorphanol, oral butorphanol 1.0 mg free base/kg, Average, value after giving prodrug and used for estimating maximal systemic exposure, read-out: t½ (converted)) is 6.1 h; in data set [7] (male, beagle, plasma, po, 0.5 mg/kg, Average), 1.6 h; in data set [7] (male, beagle, plasma, po, 0.5 mg/kg, single animal), 1.6 h. The “T>50%Cmax” value was 2.0 h in data set [7] (Average); 1.6 h and 2.4 h in [7] (single animal). The t½ in [7] (single animal) is listed as 1.7 h.
Consider `COc1ccc2c3c1O[C@H]1[C@@H](O)CC[C@H]4[C@@H](C2)N(C)CC[C@@]341` [dihydrocodeine], for which the “oral dose converted to dihydromorphine” value in [8] is recorded as “less than 2%”.
Take `CC[C@@H](c1cccc(O)c1)[C@@H](C)CN(C)C` [tapentadol]: the half-life in data set [9] (cynomolgus monkey, plasma, po, 3 mg/kg) is 1.2 h. Further, the AUC in data set [9] (male, cynomolgus monkey, plasma, po, 1 mg free base equivalents/kg) is 5.4 ng·h/mL; in data set [9] (male, cynomolgus monkey, plasma, po, 1 mg/kg tapentadol free base equivalents/kg) it was less than 5.4 ng·h/mL. The Cmax in data set [9] (male, cynomolgus monkey, plasma, po, 1 mg free base equivalents/kg, Cmax * (estimated), racemic tapentadol (all four isomers), oral tapentadol scaled up from 1 to 3 mg free base equivalents/kg, monkeys, n = 5, LLOQ taken as Cmax) was 2.4 ng/mL. The “plasma concentrations of tapentadol, each isomer (LLOQ)” value in data set [9] (oral tapentadol 1 mg/kg, monkeys) is less than 0.4 ng/mL. The “Cmax * (estimated)” value in [9] (racemic tapentadol (all four isomers), oral tapentadol scaled up from 1 to 3 mg free base equivalents/kg, monkeys, n = 5, LLOQ taken as Cmax) is recorded as less than 2.4 ng/mL.
For the compound `CCC1(c2cccc(O)c2)CCCCN(C)C1` (stereo not shown) [Meptazinol HCl (oral), Meptazinol HCl], the bioavailability – broadly, the share of a dose that reaches the circulation, judged against a reference dose that is usually intravenous – in “in vivo [10]” was 6 ± 2.1%; in “in vivo [11]”, 1.8 ± 0.2%.
Take `CCC(C)C(NC(=O)Oc1cccc(C2(CC)CCCCN(C)C2)c1)C(=O)O` (stereo not shown) [Meptazinol isoleucine carbamate]: in [2] (pH 10.0, 37° C, 2 h), the “Chemical Stability, % prodrug remaining at 2 h, pH 10.0” value is reported as 73% pH 10.0. Also, the “Biological/chemical stability - SIF - pH 6.8, 37 C. % prodrug remaining at 2 h” value in data set [3] (setting [13]) is 99%.
